Test results reported in patent US12171813B2, “Methods of and compositions for reducing gene expression and/or activity” (Christiana Care Gene Editing Institute, Inc., priority 2021, dated 2024).

Assays:
NRF2 = experiment: cDNA PCR analysis of exon skipping / full-size transcript in NFE2L2; format: cell-based, Human; conditions: gRNA individually applied in the CRISPR reaction; NCI-H1703 clone 44-25 cells
Method: After CRISPR reactions, total RNA was prepared, and cDNA synthesized for PCR amplification of the target region from NRF2. PCR-amplified DNA was then analyzed by electrophoresis through a 1% agarose gel for 75 minutes at 80v. DNA was stained with SYBR Safe. Lanes 1 and 10: NEB 2 Log Ladder; Lane 2: Scrambled gRNA; Lane 3: NRF2 3-4 SureKill gRNA 3 alone; Lane 4: NRF2 3-4 SureKill gRNA 12 alone; Lane 5: NRF2 3-4 SureKill gRNA 14 alone; Lane 6: NRF2 3-4 SureKill gRNA 15 alone; Lane 7: NRF2 3-4 SureKill gRNA 21 alone; Lane 8: NRF2 3-4 SureKill gRNA 25 alone; Lane 9: NRF2 3-4 SureKill gRNA 26 alone. On the left side of the image are markers indicating DNA size in bp.
After CRISPR reactions, total RNA was prepared, and cDNA synthesized for PCR amplification of the target region from NRF2. PCR-amplified DNA was then analyzed by electrophoresis through a 1% agarose gel for 75 minutes at 80v. DNA was stained with SYBR Safe. Lane 1: NEB 2 Log Ladder; Lane 2: Scrambled gRNA; Lane 3: R34G gRNA alone; Lane 4: NRF2 3-4 SureKill gRNA 3+R34G gRNA; Lane 5: NRF2 3-4 SureKill gRNA+R34G gRNA; Lane 6: NRF2 3-4 SureKill gRNA 14+R34G gRNA. […]
(§1) Transfections were carried out using the Lonza Nuclefector 4d. […] RNPs were complexed at 250:50 pmol for 30 minutes prior to transfection, during which time cells were harvested and counted. […]

NRF2 gene = experiment: Genomic DNA PCR assessment of large deletions in NRF2 gene; format: cell-based, Human; conditions: gRNA alone, not paired
Method: After CRISPR reactions, genomic DNA was prepared for PCR amplification of the target region from NRF2 gene. PCR-amplified DNA was then analyzed by electrophoresis through a 1% agarose gel for 75 minutes at 80v. DNA was stained with SYBR Safe. Lanes 1 and 12: NEB 2 Log Ladder; Lane 2: Scrambled gRNA; Lane 3: R34G gRNA alone; Lane 4: NRF2 3-4 SureKill gRNA 3 alone; Lane 5: NRF2 3-4 SureKill gRNA 12 alone; Lane 6: NRF2 3-4 SureKill gRNA 14 alone; Lane 7: NRF2 3-4 SureKill gRNA 15 alone; Lane 8: NRF2 3-4 SureKill gRNA 3+R34G gRNA; Lane 9: NRF2 3-4 SureKill gRNA 12+R34G gRNA; Lane 10: NRF2 3-4 SureKill gRNA 14+R34G gRNA; Lane 11: NRF2 3-4 SureKill gRNA 15+R34G gRNA. On the left side of the image are markers indicating DNA size in bp. Expected dropout size for NRF2 3-4 SureKill gRNA 3+R34G gRNA: 676 bp. Expected dropout size for NRF2 3-4 SureKill gRNA 12+R34G gRNA: 658 bp. Expected dropout size for NRF2 3-4 SureKill gRNA 14+R34G gRNA: 582 bp. Expected dropout size for NRF2 3-4 SureKill gRNA 15+R34G gRNA: 515 bp. Dropout bands are indicated by asterisks.
Human lung squamous cell carcinoma NCI-H1703 clone 44-25 cells were derived from NCI-H1703 cells (#CRL-5889) which were purchased from ATCC (Manassas, VA, USA). […]
as §1

R34G gRNA: guide RNA GATATAGATCTTGGAGTAAG, SEQ ID NO:1, targets NRF2 R34G mutation (listed as DNA, chemistry not given here)
exon skipping (cDNA analysis) (NRF2): induced some level of exon skipping
large deletions (genomic DNA PCR) (NRF2 gene): does not induce a large deletion
